Earlier results as cited in US20070031367A1, “Composition and method for neck skin firming” (priority 2004, published 2007).

## COc1cc(CNC(=O)CCCC/C=C/C(C)C)ccc1O [Capsaicin, N-canillyl-8-methyl-6-(E)-noneamide]
fats, oils and alcohol
  Solubility in fats, oils and alcohol: very soluble
water
  Solubility in water: sparingly soluble
